Measurements from patent publication US5242930A, “Azabicyclic compounds, pharmaceutical compositions containing them and their use in therapy” (Merck Sharp & Dohme Ltd., priority 1991, dated 1993).
Structures can show the parent of a compound that is named as a salt.

Tested on: longitudinal muscle of guinea pig ileum
Assay: Antagonism of the contraction elicited by SPOMe (substance P methyl ester) on guinea pig ileum longitudinal muscle (isometric contraction)
Details: Cavia porcellus, compound at 1.0 μM, 0.1μM SPOMe

| SMILES | inhibition at 1 µM |
| --- | --- |
| O=[N+]([O-])c1cccc(CO[C@H]2C3CCN(CC3)[C@H]2C(c2ccccc2)c2ccccc2)c1 (relative stereo) [Example 1, cis-2-(Diphenylmethyl)-3-(3-nitrobenzyloxy)-1-azabicyclo[2.2.2]octane oxalate] | > 70% |
| FC(F)(F)c1ccccc1CO[C@H]1C2CCN(CC2)[C@H]1C(c1ccccc1)c1ccccc1 (relative stereo) [Example 2, cis-2-(Diphenylmethyl)-3-[2-(trifluoromethyl)benzyloxy]-1-azabicyclo[2.2.2]octane oxalate] | > 70% |
| Clc1cccc(CO[C@H]2C3CCN(CC3)[C@H]2C(c2ccccc2)c2ccccc2)c1 (relative stereo) [Example 4, cis-3-(3-Chlorobenzyloxy)-2-(diphenylmethyl)-1-azabicyclo[2.2.2]octane oxalate] | > 70% |
| Fc1cc(F)cc(CO[C@H]2C3CCN(CC3)[C@H]2C(c2ccccc2)c2ccccc2)c1 (relative stereo) [Example 7, cis-3-(3,5-Difluorobenzyloxy)-2-(diphenylmethyl)-1-azabicyclo[2.2.2]octane oxalate] | > 70% |
| COc1ccc(CO[C@H]2C3CCN(CC3)[C@H]2C(c2ccccc2)c2ccccc2)cc1 (relative stereo) [Example 8, cis-2-(Diphenylmethyl)-3-(4-methoxybenzyloxy)-1-azabicyclo[2.2.2]octane oxalate] | > 70% |
